# Results taken from patent publication US4684651A, “Alkylenedioxybenzene and acid addition salts thereof useful as hypotensives” (Mitsubishi Chemical Industries Limited, priority 1981, dated 1987).
# Counter-ions that a name gives are not always drawn.
# Key:
# [1] = test system: spontaneous hypertensive rats (SHR); assay: Hypotensive activity in spontaneous hypertensive rats (oral); type: in vivo; conditions: Rattus norvegicus, relative to blood pressure before medication, read-out: Hypotensive effect (average % drop in blood pressure); for inhibition in vivo at 1 mg/kg: 1 mg/kg p.o.; for inhibition in vivo at 3 mg/kg: 3 mg/kg p.o.; for inhibition in vivo at 10 mg/kg: 10 mg/kg p.o.
# Method: The hypotensive activities of the compounds of this invention were tested as follows: The test animals used were spontaneous hypertensive rats (SHR) of 5 to 7 month old weighing 300 to 370 g. The blood pressure and the heart rate were measured bloodily under no anesthesia by means of a catheter which has been inserted through the tail's artery under ether anesthesia, thereby determining the average blood pressure and heart rate before medication. […] The hypotensive effect was expressed as percent drop relative to the blood pressure before medication.
# [2] = Acute toxicity (LD50) in mice; conditions: mouse, in vivo, iv, Litchfield-Wilcoxon method
# Method: The values for acute toxicity (LD50) were calculated by the Litchfield-Wilcoxon method from the data obtained on mice.
Compound,inhibition in vivo at 1 mg/kg [1] [%],inhibition in vivo at 3 mg/kg [1] [%],inhibition in vivo at 10 mg/kg [1] [%],LD50 [2] [mg/kg]
"OC(CCCCN1CCN(c2ccccc2)CC1)c1ccc2c(c1)OCO2 (centres unmarked) [Compound 26, 5-[5-(4-phenyl-1-piperazinyl)-1-hydroxypentyl]-1,3-benzodioxole]",13,21.9,52.6,–
"O=C(CCCN1CCN(c2ccccc2)CC1)c1ccc2c(c1)OCCO2 [Compound 58, 6-[4-(4-phenyl-1-piperazinyl)butyryl]-1,4-benzodioxane]",12.7,51.6,62.7,–
OC(CCCN1CCN(c2ccccn2)CC1)c1ccc2c(c1)OCCCO2 (centres unmarked) [Compound 25],30.3,35.8,43.9,68.5
"O=C(CCCCN1CCN(c2ccccc2)CC1)c1ccc2c(c1)OCO2 [Compound 64, 5-[5-(4-phenyl-1-piperazinyl]valeryl]-1,3-benzodioxole]",10.1,21.3,54.5,45.7
"COc1ccccc1N1CCN(CCCC(=O)c2ccc3c(c2)OCCO3)CC1 [Compound 74, 6-[4-[4-(2-methoxyphenyl)-1-piperazinyl]butyryl]-1,4-benzodioxane]",29.9,–,–,–
"O=C(CCCN1CCN(c2ccccn2)CC1)c1ccc2c(c1)OCO2 [Compound 71, 5-[4-[4-(2-pyridyl)-1-piperazinyl]butyryl]-1,3-benzodioxole]",11.5,20.9,43.1,–
O=C(CCN1CCN(c2ccccc2)CC1)c1ccc2c(c1)OCCCO2 [Compound 56],6.2,17,31.5,–
COc1ccccc1N1CCN(CCCCC(=O)c2ccc3c(c2)OCCCO3)CC1 [Compound 69],23.8,–,–,–
COc1ccccc1N1CCN(CCCCC(O)c2ccc3c(c2)OCCCO3)CC1 (centres unmarked) [Compound 37],15.6,30.4,45.7,–
OC(CCN1CCN(c2ccccc2Cl)CC1)c1ccc2c(c1)OCCO2 (centres unmarked) [Compound 16],7.9,11.9,29.8,–
"COc1ccccc1N1CCN(CCCCC(=O)c2ccc3c(c2)OCC(C)(C)CO3)CC1 [Compound 79, 7-[5-[4-(2-methoxyphenyl)-1-piperazinyl]valeryl]-3,3-dimethyl-1,5-benzodioxepine]",8,15.8,32.5,–
"OC(CCCN1CCN(c2ccccn2)CC1)c1ccc2c(c1)OCO2 (centres unmarked) [Compound 31, 5-[4-[4-(2-pyridyl)-1-piperazinyl]-1-hydroxybutyl]-1,3-benzodioxole]",11.5,33.6,45.7,–
"COc1ccccc1N1CCN(CCCC(O)c2ccc3c(c2)OCCO3)CC1 (centres unmarked) [Compound 33, 6-[4-[4-(2-methoxyphenyl)-1-piperazinyl]-1-hydroxybutyl]-1,4-benzodioxane]",22.6,41.8,43.2,–
"O=C(CCCCN1CCN(c2ccccc2)CC1)c1ccc2c(c1)OCCCO2 [Compound 68, 7-[5-(4-phenyl-1-piperazinyl)valeryl]-1,5-benzodioxepine]",12.5,28.6,44,–
"OC(CCCN1CCN(c2ccccc2)CC1)c1ccc2c(c1)OCCO2 (centres unmarked) [Compound 20, 6-[4-(4-phenyl-1-piperazinyl)-1-hydroxybutyl]-1,4-benzodioxane]",13.7,38.4,56.1,–
"O=C(CCCCN1CCN(c2ccccn2)CC1)c1ccc2c(c1)OCCCO2 [Compound 78, 7-[5-[4-(2-pyridyl)-1-piperazinyl]valeryl]-1,5-benzodioxepine]",13.7,24.9,27.8,–

Compound,inhibition in vivo at 1 mg/kg [1] [%],inhibition in vivo at 3 mg/kg [1] [%],inhibition in vivo at 10 mg/kg [1] [%],LD50 [2] [mg/kg]
"COc1ccccc1N1CCN(CCCC(O)c2ccc3c(c2)OCCCO3)CC1 (centres unmarked) [Compound 34, 7-[4-[4-(2-methoxyphenyl)-1-piperazinyl]-1-hydroxybutyl]-1,5-benzodioxepine]",24.5,40.4,48,–
"O=C(CCCN1CCN(c2ccccn2)CC1)c1ccc2c(c1)OCCO2 [Compound 72, 6-[4-[4-(2-pyridyl)-1-piperazinyl]butyryl]-1,4-benzodioxane]",10.1,25.3,46.4,–
"O=C(CCCCN1CCN(c2ccccc2)CC1)c1ccc2c(c1)OCCO2 [Compound 65, 6-[5-(4-phenyl-1-piperwzinyl)valeryl]-1,4-benzodioxane]",21.7,–,–,–
"OC(CCCCN1CCN(c2ccccc2)CC1)c1ccc2c(c1)OCCCO2 (centres unmarked) [Compound 29, 7-[5-(4-phenyl-1-piperazinyl)-1-hydroxypentyl]-1,5-benzodioxepine]",10.8,27.5,50.7,–
"COc1ccccc1N1CCN(CCCCC(=O)c2ccc3c(c2)OCCO3)CC1 [Compound 76, 6-[5-[4-(2-methoxyphenyl)-1-piperazinyl]varleryl]-1,4-benzodioxane]",8.6,23.7,56.7,–
O=C(CCN1CCN(c2cccc(F)c2)CC1)c1ccc2c(c1)OCCO2 [Compound 51],5.9,14.5,49.9,–
"COc1ccccc1N1CCN(CCCCC(=O)c2ccc3c(c2)OCO3)CC1 [Compound 77, 5-[5-[4-(2-methoxyphenyl)-1-piperazinyl]valeryl]-1,3-benzodioxole]",12.9,21.5,34.5,–
OC(CCCN1CCN(c2ccccc2)CC1)c1ccc2c(c1)OCCCO2 (centres unmarked) [Compound 21],19.8,30.9,43.4,184
"COc1ccccc1N1CCN(CC(O)c2ccc3c(c2)OCO3)CC1 (centres unmarked) [Compound 2, 5-[2-[4-(2-methoxyphenyl)-1-piperazinyl]-1-hydroxyethyl]-1,3-benzodioxole]",10.2,19.2,36.5,–
"COc1ccccc1N1CCN(CCN(C(C)=O)c2ccc3c(c2)OCO3)CC1 [Compound 81, N-[2-[4-(2-methoxyphenyl)-1-piperazinyl]ethyl]-N-acetyl-3,4-methylenedioxyaniline hydrochloride]",15.5,21.2,–,–
"OC(CN1CCN(c2ccccc2)CC1)c1ccc2c(c1)OCCCO2 (centres unmarked) [Compound 8, 7-[2-(4-phenyl-1-piperazinyl)-1-hydroxyethyl]-1,5-benzodioxepine]",8.6,14.1,25,–
OC(CCCCN1CCN(c2ccccn2)CC1)c1ccc2c(c1)OCCCO2 (centres unmarked) [Compound 36],10.1,19.4,31,–
"OC(CCCN1CCN(c2ccccc2)CC1)c1ccc2c(c1)OCO2 (centres unmarked) [Compound 19, 5-[4-(4-phenyl-1-piperazinyl)-1-hydroxybutyl]-1,3-benzodioxole dihydrochloride]",12.8,45.9,56.6,–
O=C(CCCN1CCN(c2ccccc2)CC1)c1ccc2c(c1)OCCCO2 [Compound 59],9.8,34.4,40.5,–
COc1ccccc1N1CCN(CCC(O)c2ccc3c(c2)OCCO3)CC1 (centres unmarked) [Compound 17],8.1,20.5,53.1,–
